Some results are limits rather than exact numbers.

These results are taken from PubChem BioAssay AID1508591.

For this data set the following is noted: rat; liver microsomes; pH 7.4; 15.0 min; 1.0 µM.

Molecule `COc1ccc(-n2nc(C3CCCN([S+](=O)([O-])c4cccc(C(F)(F)F)c4)C3)[nH]c2=O)cc1` (stereo unspecified) had a half-life of 6.33 min.
For `CCc1cccc(-n2nnc(-c3nsc(NC(=O)c4cccc(OC)c4)n3)c2C)c1`, the half-life was 12.8 min.
For `Nc1c(C(=O)Nc2ccc(F)cc2)sc2nc(-c3cccs3)cc(C(F)(F)F)c12` the value was greater than 30 min; for `CC(=O)Nc1ccc(OCc2cn(CC(=O)c3ccc(O)cc3)nn2)cc1`, greater than 30 min; for `O=C(Cc1ccc(Cl)c(Cl)c1)Nc1ccc(S(=O)(=O)Nc2ccon2)cc1`, greater than 30 min.
The value for `NC(=O)COc1ccc(C2CC(=O)Nc3n[nH]c(Nc4ccccc4)c32)cc1` (stereo unspecified) was greater than 30 min.
For the molecule `COc1ccc(C(=O)CCN(C)C)cc1F`, the half-life came to 1.08 min.
`CCCCN(CC)CCNC(=O)c1cc2c(-c3ccc(Cl)cc3)nn(C)c2s1`: the half-life came out at 3.76 min.
For `O=C(Cc1ccc2ccccc2c1)Nc1ccc(S(=O)(=O)Nc2nccs2)cc1` the value was greater than 30 min; for `CCc1ccc(S(=O)(=O)Nc2cnccc2C(=O)Nc2nc(-c3ccccc3)cs2)cc1`, 4.4 min; for `Cc1ccc(NS(=O)(=O)c2cccc(C(=O)O)c2)cc1S(=O)(=O)N1CCOCC1`, greater than 30 min.
The value for `COC(=O)c1sccc1NC(=O)c1sccc1C` was 1.46 min.
The molecule `CCS(=O)(=O)c1nc(-c2ccc(Cl)cc2)cc(C(F)(F)F)n1` came in with a half-life of 5.7 min.
Molecule `N=c1c2c(ccn1CCc1ccccc1)Oc1ccc3ccccc3c1C2c1ccccc1` (stereo unspecified) gave a half-life greater than 30 min.
The molecule `COc1cc(C(=O)NC2CCCc3c2[nH]c2ccccc32)cc(OC)c1OC` (stereo unspecified) registered a half-life of 11.8 min.
In the case of `Cn1cc(C2=C(c3cn(C)c4cc([N+](=O)[O-])ccc34)C(=O)NC2=O)c2ccccc21`, the half-life was determined as 4.05 min.
`O=C(O)C1CCN(c2ncc(-c3ccc4c(c3)OCCCO4)s2)CC1`: the half-life was greater than 30 min.
The value for `Cc1nc(-c2ccccc2)cc([C@H]2CN3CC[C@H]2C[C@@H]3CNC2CCOCC2)n1` was greater than 30 min; that for `COc1ccc(-n2c(C)c(C(C)=O)c3ccccc32)cc1` was 2.4 min; that for `CCN(C(=O)C(NS(=O)(=O)c1ccc(Br)s1)c1ccccc1)c1ccc(C)c(C)c1` (stereo unspecified) was 0.99 min.
Consider `CC1CN(c2ccc(Nc3nc(-c4ccncc4)nc4ccccc34)cc2F)CC(C)O1` (stereo unspecified), for which the half-life came to 5 min.
For `CN(C)c1cccc(-c2cc(N3CCC(C(N)=O)CC3)ncn2)c1` the value was 21.1 min.
Consider `Cc1nn2c(c1-c1ccccc1-c1ccccc1)N(Cc1ccccc1)CCC2`, for which the half-life was found to be 1.23 min.
For `COc1cc(Nc2nc(-c3ccncc3)nc3ccccc23)ccc1F` the value was 7.35 min; for `O=C1CCCCc2cc(O)c(O)cc21`, greater than 30 min; for `COc1ccc(-c2ccc3ncc(Nc4ccncc4)n3n2)cc1OC`, 23 min.
In turn, `COCCN1CCNc2nc(COc3ccc(C(C)C)cc3)n(Cc3ccccc3)c2C1=O` displayed a half-life of 1.82 min.
`CCOc1ccc(CN2C(=O)c3ccccc3Sc3ccc(C(=O)NC4CCC(C)CC4)cc32)cc1` (stereo unspecified) came in with a half-life of 3.52 min.
Consider `NC(=O)c1ccc(-c2ncc3cnc(-c4cccc(F)c4)cn23)cc1`, for which the half-life was found to be 20.7 min.
The value for `COc1ccc(-c2ccc3nc(-c4cc(F)cc(F)c4F)oc3c2)c(OC)c1OC` was greater than 30 min.
For `Cc1nc2ccc(NC(=O)c3cc(S(=O)(=O)N(C)c4ccccc4)ccc3Cl)cc2s1` the value was 1.55 min; for `O=S(=O)(Nc1cccc2ccncc12)c1ccc(NCc2cccc(Cl)c2O)cc1`, 9.9 min; for `COc1ccc(-c2csc(NC(=O)c3ccncc3NS(=O)(=O)c3ccc(C)cc3)n2)cc1`, 4.7 min.
The molecule `O=C(NC1CCCc2c1[nH]c1c(Cl)cccc21)c1ccc2c(c1)OCO2` (stereo unspecified) yielded a half-life of 12.8 min.
For the molecule `Cc1c(NC2=C(Cl)C(=O)N(c3ccccc3)C2=O)c(=O)n(-c2ccccc2)n1C`, the half-life was determined as 23 min.
`CC1=C(C(=O)Nc2ccccc2)C(c2ccccc2Br)N=C(Nc2nc3ccccc3o2)N1` (stereo unspecified): the half-life is 27 min.
Molecule `CCCCCN(CCC12CC3CC(CC(C3)C1)C2)C(=O)NCCCc1ccncc1` came in with a half-life of 3.7 min.
For `Cc1ccc(S(=O)(=O)N[C@@H](Cc2ccccc2)C(=O)CCl)cc1` the value was 2.36 min; for `OC1(CN2CCN(c3ccc(F)c(Cl)c3)CC2)CCCNC1` (stereo unspecified), 5.96 min; for `Cc1noc(C)c1[S+](=O)([O-])N1CCC2(CC1)CC(c1cccc(C(F)(F)F)c1)=NO2`, 24.8 min.
Molecule `CNc1oc(-c2cccc3ccccc23)nc1C(=O)Nc1cccc(C#N)c1` had a half-life of 17 min.
Turning to `CCN(CC)C(=O)N1c2ccccc2C=Cc2ccccc21`, the half-life stood at 1.07 min.
`CC(C)C[C@H](NC(=O)[C@H](CCc1ccccc1)NC(=O)CN1CCOCC1)C(=O)N[C@@H](Cc1ccccc1)C(=O)N[C@@H](CC(C)C)C(=O)[C@@]1(C)CO1` showed a half-life of 3.52 min.
The value for `COC(=O)CNC(=O)c1nc(-c2ccc(Cl)cc2Cl)c2cnccn12` was 3.71 min.
Molecule `CC(C)(O)CCc1ccc(OCc2cc(-c3cccc(OC(F)F)c3)c3ncccc3c2)cc1` yielded a half-life greater than 30 min.
For `Cc1ccc(S(=O)(=O)Nc2cnccc2C(=O)Nc2ccc(-c3nn[nH]n3)cc2)cc1` the value was greater than 30 min; for `CC(=O)Nc1ccc(C(=O)Nc2ccccc2N)cc1`, greater than 30 min.
For `O=C(NCCCn1ccnc1)c1nc(-c2ccccc2)cc2[nH]ccc12`, the half-life is greater than 30 min.
The value for `O=C(NC1CCCc2c1[nH]c1ccc(Cl)cc21)c1ccncc1` (stereo unspecified) was greater than 30 min.
`Cc1ccnc(NC(=S)N2CCN(c3ccc(C(F)(F)F)cc3[N+](=O)[O-])CC2)c1` displayed a half-life greater than 30 min.
With `CCc1cccc(NS(=O)(=O)c2ccc3c(c2)CC(C)N3C(=O)C2CC2)c1` (stereo unspecified), the half-life worked out at 1.96 min.
The value for `CN1CCC(N(Cc2cccs2)c2ccccc2)CC1` was 1.37 min; that for `CCOC(=O)c1nn(-c2ccccc2)c(=O)c2c(N)scc12` was 2.12 min; that for `O=C(Nc1nc(-c2ccccc2)cs1)c1ccncc1NS(=O)(=O)c1cccc(Cl)c1` was 5 min.
On to `CNc1nc2c(s1)C(c1ccccc1F)CC(=O)N2` (stereo unspecified), for which the half-life stood at 3.51 min.
The value for `COc1ccccc1CNC(=O)CCCn1nc(C)c2c(C)n(-c3ccc(C)cc3)nc2c1=O` was 3.45 min; that for `O=C(Nc1nc(-c2ccccc2)cs1)c1ccncc1NS(=O)(=O)c1ccc(F)c(F)c1` was 11 min.
For `O=C(Nc1ccccc1F)c1nc(S(=O)(=O)Cc2ccccc2F)ncc1Cl` the value was 1.49 min.
As to `COc1cccc(CNc2ccc(S(=O)(=O)Nc3cccc(N4CCNCC4)c3)cc2)c1O`, the half-life was greater than 30 min.
For `COc1cccc(-c2noc(Nc3ccc4c(c3)OCCO4)n2)c1` the value was 20.7 min.
The value for `Cc1cccc2oc(NC3=NC(c4[nH]ncc4Cl)C4=C(CCCC4=O)N3)nc12` (stereo unspecified) was 10.6 min; that for `Cc1nn(CCc2nc(-c3ccccc3)cs2)c2[nH]c(=O)cc(C(F)(F)F)c12` was 10.3 min; that for `COc1ccccc1-c1csc(N2CCC(C(N)=O)CC2)n1` was 15 min.
The value for `O=C(N/N=C/c1ccc(O)c(O)c1)c1cc2ccccc2cc1O` was 15.1 min; that for `Nc1cccc(CNc2ccc(S(=O)(=O)Nc3nccs3)cc2)c1O` was greater than 30 min.
`c1ccc(CNc2cc3c(cn2)CN(Cc2cccnc2)CCN3)cc1` registered a half-life of 15 min.
`O=S(=O)(Nc1cnc2ccccc2c1)c1ccc(NCc2cccc(Cl)c2O)cc1` came in with a half-life of 18 min.
With `CC(=O)c1c(C)[nH]c(C(=O)Nc2cccc([S+](=O)([O-])N3CC[C@@H](F)C3)c2)c1C`, the half-life was 3.2 min.
The value for `CCc1ccc2ncc(C(=O)c3ccc(C)c(C)c3)c(N3CCC(C(N)=O)CC3)c2c1` was 1.47 min; that for `CC[S+](=O)([O-])Nc1ccccc1C(=O)Nc1nc(-c2ccccc2)cs1` was 14 min.
For the molecule `C[C@@H](O)CNC(C)(C)CC(=O)N[C@@H]1CCc2ccccc2N(Cc2ccc(-c3ccccc3-c3nn[nH]n3)cc2)C1=O`, the half-life is greater than 30 min.
For the molecule `O=C1CCCC2=C1C1(CCCC1)N=C(Nc1nc3ccccc3o1)N2`, the half-life came to 2.7 min.
The value for `CC1=Nc2cc(C(=O)NCCc3ccccc3)ccc2Sc2c(C)ccc(C)c21` was 1.54 min; that for `CC1=C(C(=O)Nc2nncs2)C(c2[nH]ncc2Cl)N=C(Nc2nc3ccccc3o2)N1` (stereo unspecified) was greater than 30 min; that for `COc1cccc(CNc2ccc([S+](=O)([O-])Nc3cc4ccccc4s3)cc2)c1O` was 3.5 min.
For `CC(=O)c1c(C)[nH]c(C(=O)Nc2cccc(S(=O)(=O)N3CCCCC3)c2)c1C` the value was 1.7 min; for `O=C(O)c1cccc(-c2noc(-c3ccccc3F)n2)c1`, greater than 30 min.
The value for `COc1ccc(CCn2c(N)cc(=O)[nH]c2=S)cc1OC` was greater than 30 min.
Regarding `CCCOc1ccc2nc(NC(=O)OC)[nH]c2c1`, the half-life is greater than 30 min.
The molecule `NC(=O)c1cnc(N[C@@H]2CCCC[C@@H]2N)nc1Nc1cccc(-n2nccn2)c1` displayed a half-life greater than 30 min.
Take `Cc1ccnc(NC(=S)N2CCN(c3ccccc3C(F)(F)F)CC2)c1`: the half-life worked out at 2 min.
The value for `O=S(=O)(Nc1nccs1)c1ccc(NCc2ccccc2)cc1` was 10 min; that for `Fc1ccc(Nc2nc(-c3ccnc(C(F)(F)F)c3)nc3ccccc23)cc1F` was greater than 30 min; that for `CC(=O)c1c(C)n(-c2ccccc2)c2ccc(O)cc12` was 17 min.
The value for `CCOc1ccc(N2C(=O)c3n[nH]c(-c4cccs4)c3C2c2cccc(F)c2)cc1` (stereo unspecified) was 14.2 min; that for `Clc1ccc(Nc2nc(-c3ccncc3)nc3ccccc23)cc1Cl` was 15 min.
For `CCOc1ccc(CCNC(=O)c2ccnn2Cc2ccccn2)cc1OCC` the value was 5.6 min; for `Cc1c(-c2cccc3c(CCCOc4cccc5ccccc45)c(C(=O)O)n(Cc4cccnc4)c23)c(COc2ccc(N3CCN([S+](=O)([O-])N(C)C)CC3)cc2)nn1C`, 12 min.
With `Cc1cnc(-c2ccccc2C(F)F)nc1NCc1ccc(-n2ccnn2)cc1`, the half-life stood at 21 min.
Molecule `CCC[C@H](NC(=O)/C(C#N)=C/c1cccc(Br)n1)c1ccccc1` showed a half-life greater than 30 min.
For `COc1ncccc1-c1cc2[nH]ccc2c(C(=O)NCc2c(C)cc(C)[nH]c2=O)n1` the value was 5.48 min.

What is called half-life is the time needed for the level to fall by half in the phase considered.
